Values quoted from earlier work, collected in patent publication US9346789B2, “Combinations of AKT inhibitor compounds and abiraterone, and methods of use” (Genentech, Inc., priority 2011, dated 2016).

Target: T1, topoisomerase I (Homo sapiens, UniProt P11387)
T1 sequence (P11387 1-765): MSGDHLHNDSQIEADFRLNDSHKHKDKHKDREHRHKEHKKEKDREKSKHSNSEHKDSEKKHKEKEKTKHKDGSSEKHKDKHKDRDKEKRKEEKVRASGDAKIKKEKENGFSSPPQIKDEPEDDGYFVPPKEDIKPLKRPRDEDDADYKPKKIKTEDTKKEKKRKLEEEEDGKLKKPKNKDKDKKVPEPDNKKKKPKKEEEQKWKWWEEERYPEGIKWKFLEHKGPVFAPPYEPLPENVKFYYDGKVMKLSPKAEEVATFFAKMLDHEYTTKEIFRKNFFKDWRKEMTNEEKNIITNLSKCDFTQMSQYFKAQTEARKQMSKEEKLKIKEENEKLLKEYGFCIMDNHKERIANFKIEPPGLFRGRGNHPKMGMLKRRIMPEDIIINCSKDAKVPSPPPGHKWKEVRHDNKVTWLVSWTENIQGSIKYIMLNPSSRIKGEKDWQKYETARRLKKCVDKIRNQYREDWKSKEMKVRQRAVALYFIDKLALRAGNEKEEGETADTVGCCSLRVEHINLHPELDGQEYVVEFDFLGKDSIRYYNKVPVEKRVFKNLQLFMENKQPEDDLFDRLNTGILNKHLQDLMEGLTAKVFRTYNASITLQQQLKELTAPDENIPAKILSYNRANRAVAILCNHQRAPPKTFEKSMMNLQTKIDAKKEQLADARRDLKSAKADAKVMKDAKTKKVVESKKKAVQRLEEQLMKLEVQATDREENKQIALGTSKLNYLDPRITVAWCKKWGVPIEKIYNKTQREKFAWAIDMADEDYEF
Conditions: active metabolite versus irinotecan itself

SMILES: CCc1c2c(nc3ccc(O)cc13)-c1cc3c(c(=O)n1C2)COC(=O)[C@]3(O)CC [SN-38, 7-ethyl-10-hydroxy-camptothecin]
- activity relative to irinotecan: 200 times
